# Read-outs that look alike come from different tables or passages of the source.
# Key:
# [1] = molecular target: T1, human OAT4 (human organic anion transporter 4) (Homo sapiens, UniProt Q9NSA0); assay: Inhibition of 3H-estrone sulfate uptake by OAT4 in S2 cells; format: cell-based; conditions: S2 cells expressing OAT4
# T1 sequence (Q9NSA0 1-550): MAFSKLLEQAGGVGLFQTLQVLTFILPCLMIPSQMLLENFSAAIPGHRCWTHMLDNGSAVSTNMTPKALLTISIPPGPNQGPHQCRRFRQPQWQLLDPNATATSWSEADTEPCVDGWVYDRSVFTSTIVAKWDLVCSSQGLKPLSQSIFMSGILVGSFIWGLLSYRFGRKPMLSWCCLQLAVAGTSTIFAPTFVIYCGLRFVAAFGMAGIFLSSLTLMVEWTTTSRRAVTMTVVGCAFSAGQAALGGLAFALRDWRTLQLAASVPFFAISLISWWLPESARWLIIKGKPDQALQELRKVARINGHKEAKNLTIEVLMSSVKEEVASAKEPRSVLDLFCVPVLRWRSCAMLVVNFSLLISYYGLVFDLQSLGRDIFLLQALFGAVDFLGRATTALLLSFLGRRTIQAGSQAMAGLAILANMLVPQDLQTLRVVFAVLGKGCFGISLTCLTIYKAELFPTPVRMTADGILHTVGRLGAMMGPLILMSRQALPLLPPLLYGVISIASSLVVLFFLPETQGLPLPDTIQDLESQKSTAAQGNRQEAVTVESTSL
# Text: OAT4 is an organic anion transporter which is present at luminal side membrane of the proximal renal tubule and takes organic anion such as uric acid into cells, and estrone sulfate is known as the typical substrate of this. […] Results are shown in FIG. 6 in the form of relative value while the amount of uptake of ^3H-estrone sulfate in a case where nothing is present (control) is considered to be 100%.
# [2] = Clinical pharmacokinetic test, single dose of benzbromarone, plasma and urine by LC/MS/MS; format: in vivo, human; conditions: for detection in the urine: till 72 hours; for concentration at 72 h: male, human, po, 100 mg as benzbromarone
# Protocol: Next, clinical pharmacokinetic test was carried out for a case where single dose of benzbromarone was given to healthy male adult subjects.
# Results of plasma concentration of 6-hydroxybenzbromarone are shown in FIG. 3 and results of urine concentration of the same are shown in FIG. 4, respectively. The vertical axis of FIG. 3 represents plasma level (ng/mL) and the horizontal axis represents time elapsed (hour). […] The vertical axis of FIG. 4 represents concentration in the urine (ng/mL) and the horizontal axis represents time elapsed (hour).
# [3] = molecular target: T2, human OAT3 (human organic anion transporter 3) (Homo sapiens, UniProt Q8TCC7); assay: Inhibition of 3H-estrone sulfate uptake by OAT3 in S2 cells; format: cell-based; conditions: for Ki: OAT3, 3H-estrone sulfate uptake
# T2 construct: expressed in transfected cells; host or cells: S2 cells expressing OAT3
# T2 sequence (Q8TCC7 1-542): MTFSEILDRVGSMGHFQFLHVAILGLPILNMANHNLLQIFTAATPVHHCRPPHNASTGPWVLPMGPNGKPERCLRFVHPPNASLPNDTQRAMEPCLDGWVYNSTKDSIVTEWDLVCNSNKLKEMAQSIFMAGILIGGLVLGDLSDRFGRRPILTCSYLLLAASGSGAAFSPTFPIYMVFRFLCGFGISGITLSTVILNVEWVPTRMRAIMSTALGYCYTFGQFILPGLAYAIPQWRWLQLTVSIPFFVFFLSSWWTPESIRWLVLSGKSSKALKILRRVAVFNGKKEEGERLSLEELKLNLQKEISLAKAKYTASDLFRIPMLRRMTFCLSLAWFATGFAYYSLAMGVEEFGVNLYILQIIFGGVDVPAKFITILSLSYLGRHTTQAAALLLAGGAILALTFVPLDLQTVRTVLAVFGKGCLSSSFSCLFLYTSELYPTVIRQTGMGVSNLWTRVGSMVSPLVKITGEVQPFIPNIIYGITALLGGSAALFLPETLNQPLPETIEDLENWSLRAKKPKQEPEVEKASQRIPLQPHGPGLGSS
# Protocol: OAT3 is an organic anion transporter which is present at basal-lateral (vascular side) membrane of the proximal renal tubule and takes organic anion such as uric acid into cells, and estrone sulfate is known as the typical substrate of this.
# The horizontal axis of FIG. 8 represents 1/S (L/mmol) and the vertical axis represents 1/V (mg protein/μM/min), black square (▪) denotes 6-hydroxybenzbromarone (0.3 μM) case and white square (□) denotes control.
# [4] = Pharmacokinetic test of single dose in rats; format: in vivo; conditions: single dose of 100 mg/kg; for Cmax / AUC(0-t): rat, in vivo, po; for AUC(0-t): read-out: AUC0-24hr
# [5] = molecular target: T3, xanthine oxidase derived from bovine milk (Bos taurus, UniProt P80457); assay: Xanthine oxidase inhibitory activity (absorbance 292 nm, xanthine substrate); format: biochemical; conditions: for IC50: 100 μM xanthine, 37° C., pH 7.4, read-out: IC50 level, xanthine oxidase
# T3 construct: xanthine oxidase derived from bovine milk; from tissue; host or cells: bovine milk
# Protocol: Subsequently, xanthine oxidase inhibitory activity of 6-hydroxybenzbromarone was investigated. Activity of xanthine oxidase derived from bovine milk was checked as follows: Using 100 μM of xanthine as the substrate, and using a system for measuring chronologically the absorbance (292 nm) of […] generated at 37° C. in 1/15 M phosphate buffer solution (pH 7.4) in which 0.1 M phosphate buffer solution was diluted by half volume of water, inhibitory activity of 6-hydroxybenzbromarone or of oxypurinol that is a metabolic product of allopurinol was measured to analyze IC50.
# Activity of xanthine oxidase derived from bovine milk was analyzed as follows.
# [6] = molecular target: T4, URAT1 (Homo sapiens, UniProt Q96S37); assay: Inhibition of [14C] uric acid uptake by URAT1 in MDCK-URAT1 cells; format: cell-based; conditions: for IC50: MDCK-URAT1 cells, 100 μM [14C] uric acid
# T4 construct: expressed in transfected cells
# T4 sequence (Q96S37 1-553): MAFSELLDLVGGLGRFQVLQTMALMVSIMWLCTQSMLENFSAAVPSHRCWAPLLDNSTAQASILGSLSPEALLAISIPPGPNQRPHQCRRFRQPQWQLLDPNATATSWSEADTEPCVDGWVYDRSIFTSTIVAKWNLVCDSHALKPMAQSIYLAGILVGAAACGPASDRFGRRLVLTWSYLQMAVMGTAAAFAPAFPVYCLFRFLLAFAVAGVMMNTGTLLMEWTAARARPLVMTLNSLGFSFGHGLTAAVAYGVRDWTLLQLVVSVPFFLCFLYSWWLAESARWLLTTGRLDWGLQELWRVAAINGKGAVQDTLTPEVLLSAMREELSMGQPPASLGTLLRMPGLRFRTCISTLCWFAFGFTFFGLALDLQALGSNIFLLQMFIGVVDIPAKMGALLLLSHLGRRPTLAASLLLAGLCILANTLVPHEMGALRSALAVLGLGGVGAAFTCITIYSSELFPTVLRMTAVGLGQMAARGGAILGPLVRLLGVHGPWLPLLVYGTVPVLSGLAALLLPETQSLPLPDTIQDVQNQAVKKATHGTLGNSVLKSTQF
# Protocol: cDNA of URAT1 was introduced into MDCK cells and stably expressing cells (MDCK-URAT1) were created. […] Experiments are carried out each three times and level of IC50 was analyzed by profit.
# cDNA of URAT1 which was integrated into mammal expression vector pcDNA3.1, or pcDNA3.1 was gene transfected to MDCK cells to create stably expressing cells (MDCK-URAT1) and mock cells.
# This MDCK-URAT1 was cultured in the minimal essential medium containing 5% fetal bovine serum and 400 μg/mL geneticin, cells were placed in 24-well dish (as many as 10^5 cells per one well) and cultured for 2 days. After that, it was washed with Dulbecco's modified PBS and subjected to pre-incubation in the Dulbecco's modified PBS solution for 10 min.
# After that, it was washed with Dulbecco's modified PBS solution three times and cells were collected by 0.1N NaOH. Scintillation cocktail was then added to count dpm of [^14C] uric acid being taken in cells by liquid scintillation counter. Values of IC50 were analyzed by profit.
# [7] = healthy male adults, single oral 100 mg benzbromarone
# T3 sequence (P80457 whole entry): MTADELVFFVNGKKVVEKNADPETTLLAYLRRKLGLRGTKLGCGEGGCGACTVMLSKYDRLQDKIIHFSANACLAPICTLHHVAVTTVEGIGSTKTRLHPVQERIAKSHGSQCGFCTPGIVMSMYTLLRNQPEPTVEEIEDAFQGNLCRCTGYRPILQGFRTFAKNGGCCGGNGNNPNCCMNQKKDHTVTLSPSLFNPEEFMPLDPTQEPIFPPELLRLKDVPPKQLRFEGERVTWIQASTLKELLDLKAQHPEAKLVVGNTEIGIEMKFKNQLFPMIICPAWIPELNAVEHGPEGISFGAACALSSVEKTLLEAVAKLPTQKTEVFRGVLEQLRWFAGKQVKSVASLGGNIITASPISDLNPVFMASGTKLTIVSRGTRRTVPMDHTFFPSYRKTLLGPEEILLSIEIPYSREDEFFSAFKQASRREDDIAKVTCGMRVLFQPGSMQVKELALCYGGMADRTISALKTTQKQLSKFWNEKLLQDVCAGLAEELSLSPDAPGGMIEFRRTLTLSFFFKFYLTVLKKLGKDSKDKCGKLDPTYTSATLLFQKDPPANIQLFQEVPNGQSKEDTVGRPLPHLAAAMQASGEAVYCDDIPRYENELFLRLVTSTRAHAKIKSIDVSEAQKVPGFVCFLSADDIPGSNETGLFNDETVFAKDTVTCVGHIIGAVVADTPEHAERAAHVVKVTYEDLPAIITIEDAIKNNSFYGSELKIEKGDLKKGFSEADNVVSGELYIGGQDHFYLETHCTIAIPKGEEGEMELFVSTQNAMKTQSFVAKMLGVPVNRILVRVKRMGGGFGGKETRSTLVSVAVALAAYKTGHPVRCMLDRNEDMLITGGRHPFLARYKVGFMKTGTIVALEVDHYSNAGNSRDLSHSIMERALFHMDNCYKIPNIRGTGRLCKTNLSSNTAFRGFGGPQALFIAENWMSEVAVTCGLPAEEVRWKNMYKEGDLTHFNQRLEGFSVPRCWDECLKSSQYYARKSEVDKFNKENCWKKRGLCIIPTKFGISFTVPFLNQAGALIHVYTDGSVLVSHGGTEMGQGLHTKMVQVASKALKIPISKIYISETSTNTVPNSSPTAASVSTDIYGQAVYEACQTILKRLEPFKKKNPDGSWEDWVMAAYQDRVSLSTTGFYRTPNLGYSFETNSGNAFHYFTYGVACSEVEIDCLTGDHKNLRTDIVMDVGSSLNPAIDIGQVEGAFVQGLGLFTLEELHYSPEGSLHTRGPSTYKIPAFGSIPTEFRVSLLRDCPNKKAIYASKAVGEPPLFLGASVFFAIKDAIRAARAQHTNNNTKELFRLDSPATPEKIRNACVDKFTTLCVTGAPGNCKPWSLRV
Compound,IC50 [1] [nM],"time after administration at which eliminated from plasma [2, 7] [h]","detection in the urine [2, 7]",IC50 [3] [nM],Cmax [4] [ng/mL],AUC(0-t) [4] [µg·h/mL],IC50 [5] [nM],"AUC in plasma relative to benzbromarone [2, 7]","concentration at 72 h ([2]; plasma, read-out: plasma concentration 72 hours after administration) [ng/mL]","concentration at 72 h ([2]; urine, read-out: urine concentration 72 hours after administration) [ng/mL]",inhibitory activity of xanthine oxidase relative to oxypurinol ([5]; fraction of that of oxypurinol),"IC50 ([6]; 37° C. 2 min, three experiments, read-out: level of IC50, uric acid uptake by URAT1, after three times experiments) [nM]","IC50 ([6]; single experiment shown in figure, read-out: level of IC50, uric acid uptake by URAT1 (FIG. 1 / FIG. 2)) [nM]",intensity of uric acid uptake inhibition relative to benzbromarone ([6]; fraction of that of benzbromarone),"inhibitory style at OAT3 ([3]; 3H-estrone sulfate uptake, 0.3 μM, FIG. 8)","Ki ([3]; FIG. 8, read-out: Ki-value (competitive inhibition)) [nM]","Ki ([3]; FIG. 8, read-out: Ki-value (noncompetitive inhibition)) [nM]","IC50 ([3]; S2 cells expressing OAT3, 3H-estrone sulfate (50 nmol/L)) [nM]",absorption from the digestive tract into bloodstream [4]
CCc1oc2ccccc2c1C(=O)c1cc(Br)c(O)c(Br)c1 [benzbromarone],5400,48,detected little in the urine,700,90200,887,,,,,,,,,,,,,
"O=c1[nH]c(=O)c2c[nH]nc2[nH]1 [oxypurinol, reference compound]",,,,,,,13000,,,,,,,,,,,,
"CCc1oc2cc(O)ccc2c1C(=O)c1cc(Br)c(O)c(Br)c1 [6-hydroxybenzbromarone, 2-ethyl-6-hydroxy-3-(3′,5′-dibromo-4′-hydroxy-benzoyl)-benzofuran]",3200,,high level,,34600,291,68000,twice or higher level than that of benzbromarone,~110,~170,approximately ⅕,200 ± 60,130,approximately ⅙,mixed type of competitive inhibition and noncompetitive inhibition,1000,700,300,absorbed favorably
